According to PubChem BioAssay AID1996:
≈ marks a conversion by molar mass, not a printed value.

Details: buffer; pH 7.4; 200.0 µM

Compound | solubility kinetic
COC(=O)c1c(C)oc(C)c1S(=O)(=O)NCc1ccco1 | > 47 µg/mL
Cc1cc2cc(CNC(=O)COc3ccccc3)ccc2n1C | 5.2 µg/mL (≈ 16.9 µM)
NNC(=O)c1ccc(COCC(F)(F)C(F)F)cc1 | > 42 µg/mL
O=C(O)c1cc(-c2ccccc2Cl)n(-c2ccc(F)cc2)n1 | > 47.5 µg/mL
COc1ccc(CN(C)C(=O)Cc2ccsc2)c(OC)c1OC | 35.2 µg/mL (≈ 105 µM)
Cc1ccc2[nH]cc(CCNC(=O)c3ccc4c(c3)OCO4)c2c1 | 38.3 µg/mL (≈ 119 µM)
COc1cc(CC(=O)OCC(=O)NCc2ccco2)cc(OC)c1OC | > 54.5 µg/mL
CCOC(=O)Cc1csc(NC(=O)CN2CCCCC2)n1 | 41.6 µg/mL (≈ 134 µM)
COc1nc(N(C)C)nc(N(C#N)S(=O)(=O)c2ccc(C)cc2)n1 | 51.7 µg/mL (≈ 148 µM)
Cl.Oc1ccccc1CNCC12CC3CC(CC(C3)C1)C2 | > 46.2 µg/mL
Cc1ccc2[nH]c3c(c2c1)CCN(C)C3 | > 30 µg/mL
CCCNC(=O)c1ccc(COc2ccc(Cl)cc2)o1 | 33 µg/mL (≈ 112 µM)
Cn1c(SCC(=O)Nc2sccc2C#N)nnc1C1CC1 | > 47.9 µg/mL
Cc1ccc(C)c(C(C)NC(=O)c2ccc(Br)o2)c1 (stereo unspecified) | 42.1 µg/mL (≈ 131 µM)
CCNC(=O)c1cnn(-c2ccccc2)c1-c1ccccc1 | > 43.7 µg/mL
C=CCOc1c(CNc2ccc3[nH]c(=O)[nH]c3c2)cccc1OC | > 48.8 µg/mL
COCC(C)n1c(SCC(=O)NC(=O)NCc2ccccc2)nc2ccccc2c1=O (stereo unspecified) | 2.7 µg/mL (≈ 6.13 µM)
O=C(c1cc(-c2ccc(O)cc2)on1)N1CCOCC1 | > 41.1 µg/mL
C=CCC1Cc2c(cccc2[N+](=O)[O-])C(CC=C)N1 (stereo unspecified) | 30.5 µg/mL (≈ 118 µM)
CCc1ccc(OCCCCCn2ccnc2)cc1 | 19.5 µg/mL (≈ 75.5 µM)
COC(=O)Cc1ccc(NC(=S)NCCO)cc1 | 39.3 µg/mL (≈ 146 µM)
Cl.Clc1cc(I)cc(Cl)c1NC1=NCCN1 | > 58.9 µg/mL
O=Cc1ccc2ccc3cccnc3c2n1 | > 31.2 µg/mL
COc1ccc(NC(=O)c2ccc(S(=O)(=O)N3CCCCC3)cc2)cc1OC | 5.5 µg/mL (≈ 13.6 µM)
O=C(NCCc1ccccc1)C1CCC(=O)N1CCc1ccccc1 (stereo unspecified) | 46.2 µg/mL (≈ 137 µM)

Compound | solubility kinetic
Cc1cnc(NC(=O)CN2CCCCC2)s1.[O-][Cl+3]([O-])([O-])O | 24.7 µg/mL
CCCC(=O)c1c[nH]c(C(=O)NCc2cccnc2)c1 | 18.1 µg/mL (≈ 66.7 µM)
CC(Cc1ccccc1)NC(=S)CN1CCCC1=S (stereo unspecified) | 38.9 µg/mL (≈ 133 µM)
COc1ccc(Sc2nc(-c3ccccc3)ncc2OC)cc1 | < 0.3 µg/mL
C=CCN1CCN(C(=O)c2ccc(-c3ccccc3)cc2)CC1 | 32.3 µg/mL (≈ 105 µM)
COc1ccc(NC(=O)COc2ccc3c(c2)CCC3)cc1S(N)(=O)=O | 15.9 µg/mL (≈ 42.2 µM)
CC(=O)N1CCc2c(sc(NC(=O)Cc3ccc(F)cc3)c2C#N)C1 | < 0.3 µg/mL
CCOc1c(C)cnc2c1c(=O)n(Cc1ccccc1F)c(=O)n2C | 15.8 µg/mL (≈ 46 µM)
CC(OC(=O)c1cccs1)C(=O)NCCc1ccccc1 (stereo unspecified) | > 45.5 µg/mL
COc1cc(CN(C)Cc2cccc3ccccc23)cc([N+](=O)[O-])c1O | 33.8 µg/mL (≈ 95.9 µM)
CCOC(=O)CNC(=O)c1ccc(Cl)s1 | > 37.2 µg/mL
O=C(CCCNC(=O)c1ccc(Cl)cc1)Nc1cccc(F)c1 | 5.6 µg/mL (≈ 16.7 µM)
CC(C)c1ccc(NC(=O)Cc2c(C(=O)O)n(C)c3ccccc23)cc1 | > 52.6 µg/mL
COc1ccc(C(=O)O/N=C(/c2cccs2)C(C)(C)C)cc1 | 2.4 µg/mL (≈ 7.56 µM)
O=C1CC2(CCCC2)CC(=O)N1c1ccccc1 | > 36.5 µg/mL
CC12CC3CC(C)(C1)CC(C(=O)N1CCCC1)(C3)C2 | 3.9 µg/mL (≈ 14.9 µM)
S=C(NCCc1ccccc1)NCc1cccc(Cl)c1 | 13.9 µg/mL (≈ 45.6 µM)
Cc1ccc(C(=O)NCc2ccco2)o1 | > 30.8 µg/mL
Cc1ccc(S(=O)(=O)Nc2ccc3c(c2)nc(C)n3C)cc1 | 0.8 µg/mL (≈ 2.54 µM)
CCOc1ccccc1/C=C(\C#N)C1=CCCC1 | > 35.9 µg/mL
Cc1ccc(S(=O)(=O)NCCNc2ccccc2[N+](=O)[O-])cc1 | 1.1 µg/mL (≈ 3.28 µM)
CC(NC1c2ccccc2-c2ccccc21)c1ccccc1 (stereo unspecified) | < 0.6 µg/mL
O=C(Cc1ccc([N+](=O)[O-])cc1)Nc1ccon1 | 18.3 µg/mL (≈ 74 µM)
COc1ccc(CNC/C=C/c2ccccc2)cc1.Cl | > 43.5 µg/mL
Cc1ccc(N2C(=O)SC(Cc3ccccc3)C2=O)cc1 (stereo unspecified) | 0.8 µg/mL (≈ 2.69 µM)

Compound | solubility kinetic
COc1cc(CO)ccc1OCC(=O)N1CCc2ccccc21 | > 47 µg/mL
COc1cccc(CNCCO)c1OCc1ccc(Cl)cc1.Cl | > 53.7 µg/mL
O=C(COC(=O)CC1CC2CCC1C2)Nc1ccccc1Cl (stereo unspecified) | 12.9 µg/mL (≈ 40.1 µM)
O=C(O)C1Cc2[nH]cnc2C(c2cccc([N+](=O)[O-])c2)N1 (stereo unspecified) | 43.1 µg/mL (≈ 150 µM)
COc1cccc2cc(-c3nc4ccccc4[nH]3)c(=O)oc12 | < 0.3 µg/mL
COc1cc(Br)c(Br)cc1N | 14.7 µg/mL (≈ 52.3 µM)
CCC(=O)Nc1ccc(NC(=O)CCc2ccccc2)cn1 | 44.5 µg/mL (≈ 150 µM)
Cc1oc(C(C)(C)C)cc1C(=O)N1CCN(c2ccc(C(F)(F)F)cn2)CC1 | 6.4 µg/mL (≈ 16.2 µM)
COc1ccc(CCNC(=O)C2CCCN(c3ncccn3)C2)cc1 (stereo unspecified) | 49 µg/mL (≈ 144 µM)
N#Cc1ccccc1NC(=O)c1ccc2c(c1)OCCO2 | 37.4 µg/mL (≈ 133 µM)
O=C(Nc1ccc(F)cc1F)Nc1csc2ccccc12 | 0.6 µg/mL (≈ 1.97 µM)
COc1cccc(-c2nc(=S)c3c(o2)CCCC3)c1 | 12.1 µg/mL (≈ 44.3 µM)
O=C(c1ccco1)N1CCN(C(=O)c2ccc(-c3ccc([N+](=O)[O-])cc3)o2)CC1 | 44.1 µg/mL (≈ 112 µM)
CC(=O)NCc1cc(-c2ccc(Cl)cc2)no1 | 37.2 µg/mL (≈ 148 µM)
O=C(COc1ccccc1Br)NC1CC1 | > 40.5 µg/mL
Cc1ccc[n+](C(C)C(=O)c2ccc(Cl)cc2)c1.[Br-] (stereo unspecified) | 44.9 µg/mL
CC1(C)CC(=O)C=C(Nc2ccc(F)c(Cl)c2)C1 | > 40.2 µg/mL
CCCC(=O)Nc1cc(C)cn(Cc2c(F)cccc2Cl)c1=O | 41.3 µg/mL (≈ 123 µM)
Cc1cccc2nc(CSc3ncccc3C(=O)O)cn12 | 39.3 µg/mL (≈ 131 µM)
O=C(/C=C/c1ccc(Cl)cc1)NC1CCS(=O)(=O)C1 (stereo unspecified) | > 45 µg/mL
Cc1ccc([N+](=O)[O-])c(OCC(O)CNC(C)(C)C)c1.Cl (stereo unspecified) | > 47.8 µg/mL
O=C(NCc1ccco1)c1ccc2nccnc2c1 | > 38 µg/mL
CCOc1ccc2[nH]c3c(NCCO)ncnc3c2c1 | > 40.8 µg/mL
COc1cccc(-c2cc(C(=O)NCc3cccs3)no2)c1 | < 0.3 µg/mL
O=C(/C=C/c1ccccc1)Nc1cccnc1Cl | 38.8 µg/mL (≈ 150 µM)

Compound | solubility kinetic
O=C(CSc1nc2ncc(Cl)cc2[nH]1)N1CCOCC1 | > 46.9 µg/mL
COc1ccc2cc(C(=O)O)n(CC(=O)c3ccccc3)c2c1 | > 46.4 µg/mL
Cc1ccc(NC(=O)c2sc(C)nc2C)c(C)c1 | > 39.1 µg/mL
Cc1cnc(C(=O)OCc2nc3ccccc3o2)cn1 | > 40.4 µg/mL
Cc1oc(CC(C)C)cc1C(=O)NCCCC(=O)O | > 40.1 µg/mL
CNC(=O)C(C)N1c2cccc3cccc(c23)S1(=O)=O (stereo unspecified) | 34.6 µg/mL (≈ 119 µM)
C/C(=N\NC(=O)c1cc(C)nc2ccccc12)c1ccccn1 | > 45.7 µg/mL
COc1ccccc1CNCC(=O)Nc1cc(S(=O)(=O)N2CCCCC2)ccc1C.O=C(O)C(=O)O | 34.3 µg/mL
c1ccc(CCCN2CCOCC2)cc1 | 19.2 µg/mL (≈ 93.5 µM)
CSc1ncccc1C(=O)Nc1nc(C(C)(C)C)cs1 | 37.6 µg/mL (≈ 122 µM)
O=C(/C=C/c1cccc([N+](=O)[O-])c1)N1CC[C@@]2(O)CCCC[C@H]2C1 | > 49.6 µg/mL
COc1ccc(C(=O)C2CCN(C(=O)c3ccc(F)cc3)CC2)cc1 | 50.6 µg/mL (≈ 148 µM)
C=Cn1cc[n+](CC(=O)c2ccc(OC)c(OC)c2)c1.[Br-] | > 53 µg/mL
CC(=O)NS(=O)(=O)c1ccc(NC(=S)NC(=O)C2CCC2)cc1 | > 53.3 µg/mL
COc1ccc2c(c1)c(-c1csc(N)n1)c(C)n2C | 27.7 µg/mL (≈ 101 µM)
Cc1ccccc1N1CC2=C(C1=O)C(c1ccccc1)NC(=O)N2C (stereo unspecified) | 0.5 µg/mL (≈ 1.5 µM)
C[C@@H](C(=O)Nc1ccc(OC(F)F)c(Cl)c1)N1C(=O)C2CC=CCC2C1=O (stereo partly specified) | > 59.8 µg/mL
Cn1c(O)c(C(=Nc2ccc(F)cc2)c2ccccc2Cl)c(=O)n(C)c1=O | 1.8 µg/mL (≈ 4.64 µM)
Cl.FC(F)Sc1ccc(NC2=NCCCCC2)cc1 | 45 µg/mL
CC1(C)Cc2ccccc2-c2[nH]c(=S)[nH]c(=O)c21 | 30.1 µg/mL (≈ 117 µM)
O=C(COC(=O)c1c(F)cccc1Cl)NC1CCCCC1 | > 47.1 µg/mL
CC(C)C(=O)Nc1ccc(-c2nc3ncccc3o2)cc1 | 22.2 µg/mL (≈ 78.9 µM)
Cc1cc(C(=O)N2CCc3ccccc3C2)c(C)o1 | > 38.3 µg/mL
CC(C)C(C(=O)NC1=NCCS1)c1ccc(Cl)cc1 (stereo unspecified) | 1.7 µg/mL (≈ 5.73 µM)
Cc1cc(SCC(=O)N(C)C2CCCCC2)nc2ccccc12 | 19.4 µg/mL (≈ 59.1 µM)

Compound | solubility kinetic
Cc1ccc(NC(=O)Nc2cccc(C)n2)cc1 | 0.8 µg/mL (≈ 3.32 µM)
COc1ccc(/C=C/C(=O)OCC(=O)NC2CCCC(C)C2C)c(OC)c1 (stereo unspecified) | 5 µg/mL (≈ 13.3 µM)
CCC(C)(C)NC(=O)/C=C/c1ccccc1[N+](=O)[O-] | 31.4 µg/mL (≈ 120 µM)
O=C1Cc2ccccc2C(=O)N1Cc1cccc(Cl)c1 | 12.2 µg/mL (≈ 42.7 µM)
COc1ccccc1C(=O)OCC(=O)NC(C)CCc1ccccc1 (stereo unspecified) | > 51.2 µg/mL
CC1CCN(CC(=O)Nc2cccc(Cl)c2)CC1 | 39.7 µg/mL (≈ 149 µM)
O=C(NC1CCCCC1)C1CCC(=O)N(C2CC2)C1 (stereo unspecified) | > 39.7 µg/mL
CCNC(=S)Nc1ccc(N2CCCCC2)cc1 | > 39.5 µg/mL
Cc1ccc(C)c(S(=O)(=O)N2CCCN(C)CC2)c1 | > 42.4 µg/mL
Cc1nnc(NC(=O)CS(=O)(=O)Cc2ccccc2)s1 | > 46.7 µg/mL
CC1(C)CC(=O)C=C(Nc2ccc(Cl)cc2)C1 | 34.2 µg/mL (≈ 137 µM)
COc1ccccc1NCc1cc(=O)oc2c(C)c(O)ccc12 | 4.4 µg/mL (≈ 14.1 µM)
CC(C)Oc1nc(-c2ccccc2Cl)nc2ccccc12 | 0.4 µg/mL (≈ 1.34 µM)
O=C(Cc1cccs1)NCc1cccc(Br)c1 | > 46.5 µg/mL
CCCc1cc(=O)[nH]c(SCC(=O)NCc2ccc3c(c2)OCO3)n1 | > 54.2 µg/mL
Oc1c(Cl)cc(CN2CCOCC2)c2cccnc12 | 33.6 µg/mL (≈ 121 µM)
CC1Cc2ccccc2N1S(=O)(=O)c1cnc(Cl)c(Br)c1 (stereo unspecified) | < 0.4 µg/mL
CN(C)CCSC1c2ccccc2CSc2ccccc21.Cl (stereo unspecified) | 51.6 µg/mL
COc1ccc(NCCc2ccccn2)cc1.Cl | > 45.2 µg/mL
CC(C)CN(C(=O)CSc1nc2ccccc2c(=O)[nH]1)c1c(N)n(CC(C)C)c(=O)[nH]c1=O | 10.5 µg/mL (≈ 22.2 µM)
O=C(c1cccc(S(=O)(=O)N2CCc3ccccc32)c1)N1CCOCC1 | 54.8 µg/mL (≈ 147 µM)
